From US11453697B1, “Cyclic di-nucleotide compounds as sting agonists” (Merck Sharp & Dohme Corp., priority 2015, dated 2022) come the findings set out here.

Assay [1] concerns the target full-length WT STING (Homo sapiens (Human), UniProt Q86WV6, H232R). The experiment in a line: 3H-cGAMP filtration binding assay (WT STING). On the procedure: The ability of compounds to bind STING is quantified by their ability to compete with tritiated cGAMP ligand for human STING receptor membrane using a radioactive filter-binding assay.
The basic WT STING filtration assay protocol is as follows:
Tritium levels for each reaction well were then measured using a PerkinElmer TopCount plate reader.
After normalization to controls, the percent activity for each compound concentration was calculated by measuring the amount of remaining radioactivity. The plot of percent activity versus the log of compound concentration was fit with a 4-parameter dose response equation to calculate EC50 values.

In assay [2] the test system is IFN-β secretion in THP1 cells. The experiment in a line: IFN-β secretion in THP1 cell culture (5 h). The class given is cell-based, human. Summed up:
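THP1 cells incubated with compound for 5 h at 37 °C, 5% CO2, and secreted IFN-β in supernatant quantified by AlphaLISA. Percent effect normalised to 30 uM cGAMP positive control and 0.3% DMSO. EC50 from 4-parameter fit.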

The target in assay [3] is full-length HAQ STING (Homo sapiens (Human), UniProt Q86WV6, G230A/H232R/R293Q/R71H). The experiment in a line: 3H-cGAMP filtration binding assay (HAQ STING). The conditions noted are these: competition with tritiated cGAMP, HAQ STING membrane; read-out: EC50 (nM), 3H-cGAMP filtration binding assay for HAQ STING. The essentials:
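Competition binding of compounds against 8 nM [3H]cGAMP working stock on Hi-Five cell membranes overexpressing full-length HAQ STING; compound and membrane preincubated 60 min at RT before ligand addition. Bound radioactivity read by filtration and scintillation counting; percent activity normalized to controls, EC50 from 4-parameter fit.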

Where [4] appears, read: read-out: % Inh @ 20 uM, 3H-cGAMP filtration binding assay for WT STING.
Setting [5] is: competition with tritiated cGAMP, WT STING membrane; read-out: EC50 (nM), 3H-cGAMP filtration binding assay for WT STING.
Where [6] appears, read: IFN-β secretion in THP1 cell culture, 5 h, compound at 30 μM, percent activation relative to 2′3′-cGAMP.

Where two headings read alike, the source gives them in different places.

Chain of full-length WT STING (Q86WV6 other isoform, or with tags, fused parts or gaps H232R (already in the parent)): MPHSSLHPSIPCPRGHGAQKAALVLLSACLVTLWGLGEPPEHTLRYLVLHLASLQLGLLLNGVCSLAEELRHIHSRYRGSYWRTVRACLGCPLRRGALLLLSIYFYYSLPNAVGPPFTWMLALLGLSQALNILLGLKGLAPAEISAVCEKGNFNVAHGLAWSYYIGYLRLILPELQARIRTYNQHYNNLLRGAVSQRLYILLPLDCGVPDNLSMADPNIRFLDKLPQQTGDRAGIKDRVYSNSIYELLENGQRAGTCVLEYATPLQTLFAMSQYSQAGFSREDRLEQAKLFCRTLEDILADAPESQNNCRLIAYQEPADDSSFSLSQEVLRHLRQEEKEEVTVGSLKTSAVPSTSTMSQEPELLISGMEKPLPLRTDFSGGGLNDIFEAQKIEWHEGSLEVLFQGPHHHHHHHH
Chain of full-length HAQ STING (Q86WV6 other isoform, or with tags, fused parts or gaps, stated change not applied): as the sequence (Q86WV6 other isoform, or with tags, fused parts or gaps H232R (already in the parent)) above, with R71H, G230A, R293Q counted along it

In the case of `Nc1nc2c(ncn2[C@@H]2O[C@@H]3COP(O)(=S)O[C@H]4[C@H](F)[C@H](n5cnc6c(N)ncnc65)O[C@@H]4COP(O)(=S)O[C@@H]2C3(F)F)c(=O)[nH]1` (single isomer, unassigned) [Example 155], the EC50 in assay [1] (EC50 (nM), 3H-cGAMP filtration binding assay for WT STING, competition with tritiated cGAMP, WT STING membrane) is less than 1 nM. Moreover, the “% Effect at 30 μM relative to 2′3′-cGAMP” value in assay [2] amounted to 139%.
In the case of `Nc1nc2c(ncn2[C@@H]2O[C@@H]3COP(O)(=S)O[C@H]4[C@H](F)[C@H](n5cnc6c(N)ncnc65)O[C@@H]4COP(O)(=S)O[C@@H]2C3(F)F)c(=O)[nH]1` (single isomer, unassigned) [Example 156], the EC50 in assay [1] (read-out: EC50 (nM), 3H-cGAMP filtration binding assay for WT STING; competition with tritiated cGAMP, WT STING membrane) is less than 1 nM. Moreover, in assay [2], the “% Effect at 30 μM relative to 2′3′-cGAMP” value was found to be 119%.
`Nc1cc2c(ncn2[C@@H]2O[C@@H]3COP(=O)(S)O[C@H]4[C@H](F)[C@H](n5ccc6c(N)ncnc65)O[C@@H]4COP(=O)(S)O[C@@H]2[C@@H]3F)c(=O)[nH]1` (single isomer, unassigned) [Example 229]: the inhibition at 20 µM in assay [1] (setting [4]) was 31%.
In the case of `Nc1nc2c(ncn2[C@@H]2O[C@@H]3COP(O)(=S)O[C@H]4[C@@H](O)[C@H](n5cnc6c(N)ncnc65)O[C@@H]4COP(=O)(O)O[C@@H]2[C@@H]3O)c(=O)[nH]1` (stereo partly drawn) [Example 38, 2-amino-9-[(5R,7R,8R,12aR,14R,15R,15aS,16R)-14-(6-amino-9H-purin-9-yl)-2,10,15,16-tetrahydroxy-10-oxido-2-sulfidooctahydro-12H-5,8-methanofuro[3,2-l][1,3,6,9,11,2,10]pentaoxadiphosphacyclotetradecin-7-yl]-1,9-dihydro-6H-purin-6-one], the EC50 came out at 24.9 nM in assay [1] (setting [5]) and 3 nM in assay [3]. Besides, in assay [2], the “% Effect at 30 μM relative to 2′3′-cGAMP” value stood at 123%.
Regarding `Nc1nc2c(ncn2[C@@H]2O[C@@H]3COP(=O)(S)O[C@H]4[C@@H](O)[C@H](n5ccc6c(N)ncnc65)O[C@@H]4COP(=O)(O)O[C@@H]2[C@@H]3O)c(=O)[nH]1` (stereo partly drawn) [Example 43, 2-amino-9-[(5R,7R,8R,12aR,14R,15R,15aS,16R)-14-(4-amino-7H-pyrrolo[2,3-d]pyrimidin-7-yl)-10,15,16-trihydroxy-2,10-dioxido-2-sulfanyloctahydro-12H-5,8-methanofuro[3,2-l][1,3,6,9,11,2,10]pentaoxadiphosphacyclotetradecin-7-yl]-1,9-dihydro-6H-purin-6-one], the EC50 was 1020 nM in assay [1] (setting [5]) and 162 nM in assay [3]. Further, in assay [2], the “% Effect at 30 μM relative to 2′3′-cGAMP” value turned out to be 130%.
With `Nc1nc2c(nnn2[C@@H]2O[C@@H]3COP(O)(=S)O[C@@H]4[C@@H](COP(O)(=S)O[C@@H]2[C@H]3F)O[C@@H](n2ccc3c(N)ncnc32)C4(F)F)c(=O)[nH]1` (stereo partly drawn) [Example 220, 5-amino-3-[(5R,7R,8S,12aR,14R,15aR,16S)-14-(4-amino-7H-pyrrolo[2,3-d]pyrimidin-7-yl)-15,15,16-trifluoro-2,10-dihydroxy-2,10-disulfidooctahydro-12H-5,8-methanofuro[3,2-l][1,3,6,9,11,2,10]pentaoxadiphosphacyclotetra-decin-7-yl]-3,6-dihydro-7H-[1,2,3]triazolo[4,5-d]pyrimidin-7-one], in assay [1] (setting [4]), the inhibition at 20 µM was 29%. In assay [2], the “% Effect at 30 μM relative to 2′3′-cGAMP” value is listed as 6%.
As to `Nc1nc2c(ncn2[C@@H]2O[C@@H]3COP(=O)(S)O[C@H]4C[C@H](n5cc(F)c6c(N)ncnc65)O[C@@H]4COP(=O)(O)O[C@@H]2[C@@H]3F)c(=O)[nH]1` (stereo partly drawn) [Example 255, 2-amino-9-[(5R,7R,8S,12aR,14R,15aS,16R)-14-(4-amino-5-fluoro-7H-pyrrolo[2,3-d]pyrimidin-7-yl)-16-fluoro-10-hydroxy-2,10-dioxido-2-sulfanyloctahydro-12H-5,8-methanofuro[3,2-1][1,3,6,9,11,2,10]pentaoxadiphosphacyclo-tetradecin-7-yl]-1,9-dihydro-6H-purin-6-one], the EC50 in assay [1] (setting [5]) was determined as 302 nM. Further, the “% Effect at 30 μM relative to 2′3′-cGAMP” value in assay [2] (setting [6]) was 49%.
On the same counts, the results for `Nc1nc2c(ncn2[C@@H]2O[C@@H]3COP(=O)(S)O[C@H]4C[C@H](n5cc(F)c6c(N)ncnc65)O[C@@H]4COP(=O)(O)O[C@@H]2[C@@H]3F)c(=O)[nH]1` (stereo partly drawn) [Example 256, 2-amino-9-[(5R,7R,8S,12aR,14R,15aS,16R)-14-(4-amino-5-fluoro-7H-pyrrolo[2,3-d]pyrimidin-7-yl)-16-fluoro-10-hydroxy-2,10-dioxido-2-sulfanyloctahydro-12H-5,8-methanofuro[3,2-1][1,3,6,9,11,2,10]pentaoxadiphosphacyclo-tetradecin-7-yl]-1,9-dihydro-6H-purin-6-one] are 93.5 nM and 149%.
For `Nc1nc2c(ncn2[C@@H]2O[C@@H]3COP(=O)(O)O[C@H]4C[C@H](n5cnc6c(=O)[nH]cnc65)O[C@@H]4COP(=O)(O)O[C@@H]2[C@@H]3F)c(=O)[nH]1` [Example 332, 2-amino-9-[(5R,7R,8S,12aR,14R,15aS,16R)-16-fluoro-2,10-dihydroxy-2,10-dioxido-14-(6-oxo-1,6-dihydro-9H-purin-9-yl)octahydro-12H-5,8-methanofuro[3,2-l][1,3,6,9,11,2,10]pentaoxadiphosphacy-clotetradecin-7-yl]-1,9-dihydro-6H-purin-6-one], in assay [3], the EC50 worked out at 8.2 nM. For the same compound, in assay [2] (setting [6]), the “% Effect at 30 μM relative to 2′3′-cGAMP” value came out at 113%.
The corresponding values for `O=c1[nH]cnc2c1ncn2[C@@H]1O[C@@H]2COP(=O)(O)O[C@@H]3C[C@@H](COP(=O)(O)O[C@H]2[C@H]1O)O[C@H]3n1cnc2c(=O)[nH]cnc21` [Example 333] are 45.9 nM and 10%.
In the case of `Nc1nc2c(ncn2[C@@H]2O[C@@H]3COP(=O)(S)O[C@H]4C[C@H](c5cnc6c(=O)[nH]cnn56)O[C@@H]4COP(=O)(S)O[C@@H]2[C@@H]3F)c(=O)[nH]1` (stereo partly drawn) [Example 336, 7-[(5R,7R,8S,12aR,14R,15aS,16R)-7-(2-amino-6-oxo-1,6-dihydro-9H-purin-9-yl)-16-fluoro-2,10-dioxido-2,10-disulfanyloctahydro-12H-5,8-methanofuro[3,2-l][1,3,6,9,11,2,10]pentaoxadiphosphacyclotetradecin-14-yl]imidazo[2,1-f][1,2,4]triazin-4(3H)-one], in assay [1] (setting [5]), the EC50 was 422 nM. In addition, the “% Effect at 30 μM relative to 2′3′-cGAMP” value in assay [2] (setting [6]) was 85%.
